Measured values from patent US9523100B2, “Pesticidal compositions and related methods” (DOW AGROSCIENCES LLC, priority 2013, dated 2016).
Where two headings read alike, the source gives them in different places.

Columns and labels:
[1] = test system: Green Peach Aphid (GPA) (Myzus persicae) (MYZUPE); assay: Bioassay for Green Peach Aphid (GPA), foliar spray on cabbage seedlings; assay type: in vivo; settings: 72 h, read-out: GPA 200 ppm, % Control (or Mortality) rating
Description: Bioassay for Green Peach Aphid (GPA) (Myzus persicae) (MYZUPE)
The green peach aphid (Myzus persicae) is the most significant aphid pest of peach trees, causing decreased growth, shriveling of the leaves, and the death of various tissues. It is also hazardous because it acts as a vector for the transport of plant viruses, such as potato virus Y and potato leafroll virus to members of the nightshade/potato family Solanaceae, and various mosaic viruses to many other food crops. GPA attacks such plants as broccoli, burdock, cabbage, carrot, cauliflower, daikon, eggplant, green beans, lettuce, macadamia, papaya, peppers, sweet potatoes, tomatoes, watercress, and zucchini, among other plants GPA also attacks many ornamental crops such as carnation, chrysanthemum, flowering white cabbage, poinsettia, and roses. GPA has developed resistance to many pesticides.
Cabbage seedlings grown in 3-inch pots, with 2-3 small (3-5 cm) true leaves, were used as test substrate. The seedlings were infested with 20-50 GPA (wingless adult and nymph stages) one day prior to chemical application. Four pots with individual seedlings were used for each treatment. Test compounds (2 mg) were dissolved in 2 mL of acetone/methanol (1:1) solvent, forming stock solutions of 1000 ppm test compound. The stock solutions were diluted 5× with 0.025% Tween 20 in water to obtain the solution at 200 ppm test compound. A hand-held aspirator-type sprayer was used for spraying a solution to both sides of […] leaves until runoff. Reference plants (solvent check) were sprayed with the diluent only containing 20% by volume of acetone/methanol (1:1) solvent. Treated plants were held in a holding room for three days at approximately 25° C. and ambient relative humidity (RH) prior to grading. Evaluation was conducted by counting the number of live aphids per plant under a microscope. Percent control was measured by using Abbott's correction formula (W. S. Abbott, “A Method of Computing the Effectiveness of an Insecticide” J. Econ. Entomol. 18 (1925), pp. 265-267) as follows. Corrected % Control=100*(X−Y)/X
X=No. of live aphids on solvent check plants and
Y=No. of live aphids on treated plants
Biological Data for Green Peach Aphid (GPA) (MYZUPE) and Sweetpotato Whitefly-Crawler (WF) (BEMITA)” (see table section).
(§1) The mortality efficiency of the pesticidal compounds against GPA and WF insects was determined after treatment.

[2] = test system: Sweetpotato Whitefly-Crawler (WF) (Bemisia tabaci) (BEMITA); assay: Insecticidal test for Sweetpotato Whitefly-Crawler (WF) in foliar spray assay on cotton plants; assay type: in vivo; settings: 216 h, 200 ppm foliar spray on cotton plants, graded after 9 days, Abbott corrected % control, read-out: WF 200 ppm, % Control (or Mortality) rating
Description: Insecticidal Test for Sweetpotato Whitefly-Crawler (WF) (Bemisia tabaci) (BEMITA) in Foliar Spray Assay
The sweetpotato whitefly (Bemisia tabaci) has been reported as a serious pest of cultivated crops world-wide. It has an extremely wide host range attacking more than 500 species of plants from 63 plant families. Weeds often serve as alternate hosts of crop pests. Direct feeding damage is caused by the piercing and sucking sap from the foliage of plants. This feeding causes weakening and early wilting of the plant and reduces the plant growth rate and yield Indirect damage results by the accumulation of honeydew produced by the whiteflies. Honeydew serves as a substrate for the growth of black sooty mold on leaves and fruit reducing photosynthesis and lessens the market value of the plant or yield. […] The sweetpotato whitefly is considered the most common and important whitefly vector of plant viruses worldwide.
Cotton plants (Gossypium hirsutum) grown in 3-inch pots, with 1 small (4-5 cm) true leaves, were used as test substrate. The plants were infested with 200-400 whitefly eggs 4-5 days prior to chemical application. Four pots with individual plants were used for each treatment. Test compounds (2 mg) were dissolved in 1 mL of acetone solvent, forming stock solutions of 2000 ppm test compound. The stock solutions were diluted 10× with 0.025% Tween 20 in water (diluents) to obtain the solution at 200 ppm test compound. A hand-held aspirator-type sprayer was used for spraying a solution to both sides of cotton leaves until runoff. Reference plants (solvent check) were sprayed with the diluent only containing 10% by volume of acetone solvent. Treated plants were held in a holding room for 9 days at approximately 25° C. and ambient relative humidity (RH) prior to grading. Evaluation was conducted by counting the number of live 3-4 nymph stage per plant under a microscope. Percent control was measured by using Abbott's correction formula (W. S. Abbott, “A Method of Computing the Effectiveness of an Insecticide” J. Econ. Entomol. 18 (1925), pp. 265-267) as follows.
Biological Data for Green Peach Aphid (GPA) (MYZUPE) and Sweetpotato Whitefly-Crawler (WF) (BEMITA)” (see table section). Corrected % Control=100*(X−Y)/X
X=No. of live nymphs on solvent check plants and
Y=No. of live nymphs on treated plants
as §1

[3] = 200 ppm foliar spray on cabbage seedlings, graded after three days, Abbott corrected % control

| SMILES | mortality at 200 ppm [1, 3] [%] | mortality at 200 ppm [2] [%] | mortality at 200 ppm ([1]; foliar) [%] |
| --- | --- | --- | --- |
| CCN(C(=O)CCN1CCCCC1=O)c1cn(-c2cccnc2)nc1Cl [Compound F8, N-(3-Chloro-1-(pyridin-3-yl)-1H-pyrazol-4-yl)-N-ethyl-3-(2-oxopiperidin-1-yl)propanamide] | 80 to 100 | 80 to 100 |  |
| CCN(C(=O)C1CCCN(C(=O)OC(C)(C)C)C1)c1cn(-c2cccnc2)nc1Cl (centres unmarked) [FA18, tert-Butyl 3-((3-chloro-1-(pyridin-3-yl)-1H-pyrazol-4-yl)(ethyl)carbamoyl) piperidine-1-carboxylate] | 80 to 100 | 80 to 100 |  |
| CCN(C(=O)CCC(=O)N(C)Cc1ccco1)c1cn(-c2cccnc2)nc1Cl [FA77, N1-(3-Chloro-1-(pyridin-3-yl)-1H-pyrazol-4-yl)-N1-ethyl-N4-(furan-2-ylmethyl)-N4-methylsuccinamide] | 0 to 80 | 80 to 100 |  |
| CCN(C(=O)CCC(=O)N1CCCCCC1)c1cn(-c2cccnc2)nc1Cl [Compound F100, 4-(Azepan-1-yl)-N-(3-chloro-1-(pyridin-3-yl)-1H-pyrazol-4-yl)-N-ethyl-4-oxobutanamide] | 0 to 80 | 80 to 100 |  |
| CCN(C(=O)CC1CN(Cc2ccc(C(F)(F)F)cc2)C1=O)c1cn(-c2cccnc2)nc1Cl (centres unmarked) [Compound F14] | 0 to 80 | 80 to 100 |  |
| CCN(C(=O)CCC=NOCCC1CC1(F)F)c1cn(-c2cccnc2)nc1Cl (mixture of isomers) [FA61, (E/Z)-N-(3-Chloro-1-(pyridin-3-yl)-1H-pyrazol-4-yl)-4-((2-(2,2-difluorocyclopropyl)ethoxy)imino)-N-ethylbutanamide] | 80 to 100 | 80 to 100 |  |
| CCN(C(=O)CC/C(C)=N/OCc1c(C)noc1C)c1cn(-c2cccnc2)nc1Cl [FA25, (E/Z)-N-(3-Chloro-1-(pyridin-3-yl)-1H-pyrazol-4-yl)-4-(((3,5-dimethylisoxazol-4-yl)methoxy)imino)-N-ethylpentanamide] | 0 to 80 |  |  |
| CCN(C(=O)CC/C(C)=N/OCc1ncc(C(F)(F)F)cc1Cl)c1cn(-c2cccnc2)nc1Cl [FA24, (E/Z)-N-(3-Chloro-1-(pyridin-3-yl)-1H-pyrazol-4-yl)-4-(((3-chloro-5-(trifluoromethyl)pyridin-2-yl)methoxy)imino)-N-ethylpentanamide] | 0 to 80 |  |  |
| CC(C)(C)[Si](C)(C)N1CC(CC(=O)O)C1=O (centres unmarked) [Compound C3, 2-(1-(tert-butyldimethylsilyl)-2-oxoacetidin-3-yl)acetic acid] |  |  | 0 to 80 |
| CCN(C(=O)CC/C(C)=N/OCc1noc(C(C)(C)C)n1)c1cn(-c2cccnc2)nc1Cl [FA23, (E/Z)-4-(((5-(tert-Butyl)-1,2,4-oxadiazol-3-yl)methoxy)imino)-N-(3-chloro-1-(pyridin-3-yl)-1H-pyrazol-4-yl)-N-ethylpentanamide] | 0 to 80 |  |  |
| CC(C)(C)[Si](C)(C)N1CC(CCC(=O)O)C1=O (centres unmarked) [Compound C4, 3-(1-(tert-Butyldimethylsilyl)-2-oxoazetidin-3-yl)propanoic acid] |  |  | 0 to 80 |
| CCN(C(=O)CC/C(C)=N/OCC1CC(F)(F)C1)c1cn(-c2cccnc2)nc1Cl [FA21, (E/Z)-N-(3-Chloro-1-(pyridin-3-yl)-1H-pyrazol-4-yl)-4-(((3,3-difluorocyclobutyl)methoxy)imino)-N-ethylpentanamide] | 0 to 80 |  |  |
| CCN(C(=O)C(C)C/C(C)=N/OCCC1CC1(F)F)c1cn(-c2cccnc2)nc1Cl (centres unmarked) [FA58, (E)-N-(3-Chloro-1-(pyridin-3-yl)-1H-pyrazol-4-yl)-4-((2-(2,2-difluorocyclopropyl)ethoxy)imino)-N-ethyl-2-methylpentanamide] | 80 to 100 |  |  |
| C=CCC(C)C(=O)N(CC)c1cn(-c2cccnc2)nc1Cl (centres unmarked) [CA1, N-[3-Chloro-1-(3-pyridyl)pyrazol-4-yl]-N-ethyl-2-methyl-pent-4-enamide] | 80 to 100 |  |  |
